According to paper PMC11676910, “Manganese(II) Complexes with Non-Steroidal Anti-Inflammatory Drugs: Structure and Biological Activity” (International Journal of Molecular Sciences, 2024):
Like-named read-outs stand apart in the source and are kept apart here.

Legend:
[1] = ABTS radical scavenging assay; details: compound 0.1 mM in DMSO; absorbance at 734 nm 1 min after mixing
EB–DNA adduct (CT DNA) = test: EB displacement from EB–DNA adduct by fluorescence emission spectroscopy; format: binding, calf; details: for Stern–Volmer constant KSV (EB–DNA) / EB–DNA fluorescence quenching ΔI/Io (%): [EB] = 40 μM, [DNA] = 45 μM; for EB–DNA fluorescence quenching ΔI/Io (%): λexcitation 540 nm; for relative EB–DNA fluorescence intensity (I/Io, %) remaining: λemission = 592 nm, lowest value reached, % of the initial EB–DNA fluorescence; for quenching constant kq of the EB–DNA fluorescence: τo = 23 ns
[2] = target: human serum albumin (HSA) (Homo sapiens, UniProt P02768); details: for HSA binding constant Κ(HSA): Scatchard equation, HSA 3 μM; for relative HSA fluorescence emission intensity (I/Io %) remaining: λem,max = 340 nm, lowest value reached, % of the initial HSA fluorescence
human serum albumin (HSA), sequence (P02768 25-609): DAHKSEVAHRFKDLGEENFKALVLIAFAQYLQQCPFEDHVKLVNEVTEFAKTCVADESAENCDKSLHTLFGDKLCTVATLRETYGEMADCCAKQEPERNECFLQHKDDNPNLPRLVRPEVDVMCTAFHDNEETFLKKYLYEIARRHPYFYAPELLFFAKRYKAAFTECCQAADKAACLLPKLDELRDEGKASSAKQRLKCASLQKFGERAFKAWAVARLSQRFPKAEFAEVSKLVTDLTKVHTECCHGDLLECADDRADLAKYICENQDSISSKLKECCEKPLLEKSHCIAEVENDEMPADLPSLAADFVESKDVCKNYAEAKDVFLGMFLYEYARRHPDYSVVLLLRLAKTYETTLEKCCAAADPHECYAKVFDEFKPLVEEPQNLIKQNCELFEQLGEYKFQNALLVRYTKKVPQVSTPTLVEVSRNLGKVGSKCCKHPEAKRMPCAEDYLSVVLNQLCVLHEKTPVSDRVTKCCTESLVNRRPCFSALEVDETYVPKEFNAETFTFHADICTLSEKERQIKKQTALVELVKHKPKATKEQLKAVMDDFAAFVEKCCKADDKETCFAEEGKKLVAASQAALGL

[3] = target: bovine serum albumin (BSA) (Bos taurus, UniProt P02769); test: BSA tryptophan fluorescence quenching; details: for BSA binding constant Κ(BSA): Scatchard equation, BSA 3 μM; for relative BSA fluorescence emission intensity (I/Io, %) remaining: λem,max = 345 nm, lowest value reached, % of the initial BSA fluorescence
bovine serum albumin (BSA), sequence (P02769 25-607): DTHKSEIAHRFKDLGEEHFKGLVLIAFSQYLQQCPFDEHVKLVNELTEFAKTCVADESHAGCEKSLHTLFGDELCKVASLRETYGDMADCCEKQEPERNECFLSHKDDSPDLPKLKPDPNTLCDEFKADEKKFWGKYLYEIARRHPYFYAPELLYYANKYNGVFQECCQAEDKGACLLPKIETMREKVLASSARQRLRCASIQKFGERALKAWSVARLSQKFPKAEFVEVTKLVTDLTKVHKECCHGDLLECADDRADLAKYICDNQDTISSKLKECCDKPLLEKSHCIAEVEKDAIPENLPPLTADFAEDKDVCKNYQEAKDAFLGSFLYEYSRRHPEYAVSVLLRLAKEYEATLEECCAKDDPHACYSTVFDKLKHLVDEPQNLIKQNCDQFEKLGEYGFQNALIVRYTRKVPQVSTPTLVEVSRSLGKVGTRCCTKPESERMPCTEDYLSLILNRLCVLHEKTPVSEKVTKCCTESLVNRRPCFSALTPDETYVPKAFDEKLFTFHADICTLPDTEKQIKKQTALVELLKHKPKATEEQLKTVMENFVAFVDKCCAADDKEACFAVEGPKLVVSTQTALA

CT DNA [4] = test: CT DNA binding by UV-vis spectroscopy titration; design: species or system calf; details: for ΔA/A0 (%) hyper-/hypo-chromism of UV band / Δλ (nm) shift of λmax: on addition of CT DNA
[5] = Solubility of the complexes; format: physicochemical
CT DNA [6] = details: classic intercalator; cited from earlier work
[7] = first band listed in the cell, + hyperchromism, − hypochromism
[8] = first band listed in the cell, + red shift, − blue shift
[9] = second band listed in the cell, <−50 = intense hypochromism
[10] = second band listed in the cell, elim = elimination

Compound	% ABTS radical scavenging activity (ABTS%) [1] [%]	Stern–Volmer constant KSV (EB–DNA) (EB–DNA adduct (CT DNA))	EB–DNA fluorescence quenching ΔI/Io (%) (EB–DNA adduct (CT DNA))	relative EB–DNA fluorescence intensity (I/Io, %) remaining (EB–DNA adduct (CT DNA)) [%]	quenching constant kq of the EB–DNA fluorescence (EB–DNA adduct (CT DNA))	HSA binding constant Κ(HSA) [2]	relative HSA fluorescence emission intensity (I/Io %) remaining [2] [%]	BSA binding constant Κ(BSA) [3]	relative BSA fluorescence emission intensity (I/Io, %) remaining [3] [%]	ΔA/A0 (%) hyper-/hypo-chromism of UV band (CT DNA [4]; [7])	Δλ (nm) shift of λmax (CT DNA [4]; [8])	solubility [5]	BSA quenching constant kq(BSA) [3]	ΔA/A0 (%) hyper-/hypo-chromism of UV band (CT DNA [4]; [9])	DNA binding constant Kb (CT DNA [4]; Wolfe–Shimer equation, buffer 150 mM NaCl, 15 mM trisodium citrate pH 7.0)	Δλ (nm) shift of λmax (CT DNA [4]; [10])	DNA binding constant Kb (CT DNA [6])	overall quenching of albumin fluorescence ([2]; % of the fluorescence intensity initially measured for albumin (HSA per Figure 11C)) [%]
Cc1ccc(Cl)c(Nc2ccccc2C(=O)[O-])c1Cl.Cc1ccc(Cl)c(Nc2ccccc2C(=O)[O-])c1Cl.O.O.[Mn+2].c1ccncc1.c1ccncc1.c1ccncc1.c1ccncc1 [Complex 1, [Μn(meclf–O)2(py)2(H2O)2]∙2py]	39.18 ± 3.27	1.15 (±0.17) × 10^5 M^–1	53.0	47.0	4.99 (±0.15) × 10^12 M^–1s^–1	8.83 (±0.24) × 10^5 M^–1	21.8	9.58 (±0.07) × 10^5 M^–1	11.8	+10%	−2 nm	soluble in DMSO and DMF	–	–	–	–	–	–
CO.CO.Cc1ccc(Cl)c(Nc2ccccc2C(=O)[O-])c1Cl.Cc1ccc(Cl)c(Nc2ccccc2C(=O)[O-])c1Cl.[Mn+2].c1cnc2c(c1)ccc1cccnc12 [Complex 3, [Μn(meclf–O)2(phen)(MeOH)2]]	18.66 ± 0.71	1.18 (±0.32) × 10^6 M^–1	79.6	20.4	5.15 (±0.14) × 10^13 M^–1s^–1	8.73 (±0.06) × 10^5 M^–1	17.0	2.71 (±0.16) × 10^6 M^–1	8.0	−6%	+2 nm	soluble in DMSO, and DMF	–	–	–	–	–	–
CO.CO.Cc1ccc(Cl)c(Nc2ccccc2C(=O)[O-])c1Cl.Cc1ccc(Cl)c(Nc2ccccc2C(=O)[O-])c1Cl.[Mn+2].c1ccc(-c2ccccn2)nc1 [Complex 4, [Mn(meclf–O)2(bipy)(MeOH)2]]	98.69 ± 0.06	1.54 (±0.31) × 10^5 M^–1	44.8	–	6.69 (±0.13) × 10^12 M^–1s^–1	9.38 (±0.29) × 10^5 M^–1	–	9.61 (±0.06) × 10^5 M^–1	–	+15%	–	–	1.76 (±0.11) × 10^14 M^–1s^–1	+9%	–	–	–	–
Cc1ccc2ccc3ccc(C)nc3c2n1.O=C([O-])c1ccccc1Nc1cccc(C(F)(F)F)c1.O=C([O-])c1ccccc1Nc1cccc(C(F)(F)F)c1.[Mn+2] [Complex 7, [Μn(fluf–O,O’)2(neoc)]]	29.70 ± 2.86	5.55(±0.12) × 10^5 M^–1	52.1	47.9	2.41 (±0.05) × 10^13 M^–1s^–1	8.33 (±0.04) × 10^5 M^–1	14.4	4.69 (±0.37) × 10^5 M^–1	10.8	−6%	0 nm	soluble in DMSO	4.62 (±0.11) × 10^13 M^–1s^–1	–	1.10 (±0.02) × 10^6 M^–1	–	–	–
Cc1c(Cl)cccc1Nc1ccccc1C(=O)[O-].Cc1c(Cl)cccc1Nc1ccccc1C(=O)[O-].Cc1ccc2ccc3ccc(C)nc3c2n1.[Mn+2] [Complex 8, [Μn(tolf–O,O’)2(neoc)]]	99.63 ± 0.07	2.35 (±0.48) × 10^5 M^–1	50.0	50.0	1.02 (±0.03) × 10^13 M^–1s^–1	6.35 (±0.29) × 10^5 M^–1	7.4	7.23 (±0.23) × 10^5 M^–1	4.4	+5%	+1 nm	soluble in DMSO	1.36 (±0.53) × 10^14 M^–1s^–1	+2%	–	+2 nm	–	–
CC[n+]1c(-c2ccccc2)c2cc(N)ccc2c2ccc(N)cc21.[Br-] [EB, 3,8–diamino–5–ethyl–6–phenyl–phenanthridinium bromide]	–	–	–	–	–	–	–	–	–	–	–	–	–	–	–	–	1.23 (±0.07) × 10^5 M^−1	–
Cc1c(C)c2c(c(C)c1O)CCC(C)(C(=O)O)O2 (stereo not drawn) [Trolox, 6–Hydroxy–2,5,7,8–tetramethylchromane–2–carboxylic acid, reference compound]	91.8 ± 0.17	–	–	–	–	–	–	–	–	–	–	–	–	–	–	–	–	–
[Μn(Hdifl–O,O’)(Hdifl–O)(neoc)]·0.5MeOH [Complex 9]	25.80 ± 1.43	1.01 (±0.42) × 10^6 M^–1	–	29.4	4.39 (±0.10) × 10^13 M^–1s^–1	5.44 (±0.24) × 10^5 M^–1	24.9	5.67 (±0.27) × 10^5 M^–1	24.8	+6%	0 nm	soluble in DMSO	2.99 (±0.16) × 10^13 M^–1s^–1	–	–	–	–	–
[Μn(dicl–O,O’)2(neoc)]∙0.25 H2O [Complex 5]	99.20 ± 0.06	7.37 (±0.05) × 10^5 M^–1	69.9	30.1	3.20 (±0.21) × 10^13 M^–1s^–1	3.09 (±0.21) × 10^5 M^–1	0.8	6.32 (±0.32) × 10^5 M^–1	12.7	+8%	+2 nm	soluble in DMSO	3.46 (±0.16) × 10^13 M^–1s^–1	+7%	–	−4 nm	–	–
[Μn(mef–O)2(py)2(H2O)(MeOH)]∙1.5py [Complex 2]	92.56 ± 0.74	2.30 (±0.53) × 10^5 M^–1	–	47.4	1.00 (±0.155) × 10^13 M^–1s^–1	1.92 (±0.10) × 10^6 M^–1	0.3	1.03 (±0.16) × 10^6 M^–1	9.7	+7%	0 nm	soluble in DMSO and DMF	–	< −50%	–	elim	–	99.7
